{
  "source": "ChEMBL document CHEMBL5120867",
  "about": "“Hernandezine Regulates Proliferation and Autophagy-Induced Apoptosis in Melanoma Cells” (J Nat Prod, 2022)",
  "key": {"Hep 3B2": {"system": "Hep 3B2", "experiment": "Cytotoxicity against human Hep3B cells assessed as reduction in cell viability by MTT assay", "assay_type": "functional, cell-based"}, "A-375 [1]": {"system": "A-375", "experiment": "Induction of cell cycle arrest in human A-375 cells assessed as accumulation at S phase at 7 uM incubated for 24 hrs by PI staining based flow cytometry analysis (reference value: 28.83 %)", "assay_type": "functional"}, "A-375 [2]": {"system": "A-375", "experiment": "Induction of cell cycle arrest in human A-375 cells assessed as accumulation at G2/M phase at 7 uM incubated for 24 hrs by PI staining based flow cytometry analysis (reference value: 1.48 %)", "assay_type": "functional"}, "A-375 [3]": {"system": "A-375", "experiment": "Downregulation of CDK4 protein expression in human A-375 cells at 6 to 8 uM measured after 12 to 24 hrs by western blot assay", "assay_type": "functional, cell-based", "conditions": "dose 6-8 µM, time 12-24 hrs"}, "A-375 [4]": {"system": "A-375", "experiment": "Downregulation of Cyclin D1 protein expression in human A-375 cells at 6 to 8 uM measured after 12 to 24 hrs by western blot assay", "assay_type": "functional, cell-based", "conditions": "dose 6-8 µM, time 12-24 hrs"}, "[5]": {"molecular_target": "Tyrosine-protein kinase JAK2 (Homo sapiens) (UniProt O60674)", "sequence (O60674 whole entry)": "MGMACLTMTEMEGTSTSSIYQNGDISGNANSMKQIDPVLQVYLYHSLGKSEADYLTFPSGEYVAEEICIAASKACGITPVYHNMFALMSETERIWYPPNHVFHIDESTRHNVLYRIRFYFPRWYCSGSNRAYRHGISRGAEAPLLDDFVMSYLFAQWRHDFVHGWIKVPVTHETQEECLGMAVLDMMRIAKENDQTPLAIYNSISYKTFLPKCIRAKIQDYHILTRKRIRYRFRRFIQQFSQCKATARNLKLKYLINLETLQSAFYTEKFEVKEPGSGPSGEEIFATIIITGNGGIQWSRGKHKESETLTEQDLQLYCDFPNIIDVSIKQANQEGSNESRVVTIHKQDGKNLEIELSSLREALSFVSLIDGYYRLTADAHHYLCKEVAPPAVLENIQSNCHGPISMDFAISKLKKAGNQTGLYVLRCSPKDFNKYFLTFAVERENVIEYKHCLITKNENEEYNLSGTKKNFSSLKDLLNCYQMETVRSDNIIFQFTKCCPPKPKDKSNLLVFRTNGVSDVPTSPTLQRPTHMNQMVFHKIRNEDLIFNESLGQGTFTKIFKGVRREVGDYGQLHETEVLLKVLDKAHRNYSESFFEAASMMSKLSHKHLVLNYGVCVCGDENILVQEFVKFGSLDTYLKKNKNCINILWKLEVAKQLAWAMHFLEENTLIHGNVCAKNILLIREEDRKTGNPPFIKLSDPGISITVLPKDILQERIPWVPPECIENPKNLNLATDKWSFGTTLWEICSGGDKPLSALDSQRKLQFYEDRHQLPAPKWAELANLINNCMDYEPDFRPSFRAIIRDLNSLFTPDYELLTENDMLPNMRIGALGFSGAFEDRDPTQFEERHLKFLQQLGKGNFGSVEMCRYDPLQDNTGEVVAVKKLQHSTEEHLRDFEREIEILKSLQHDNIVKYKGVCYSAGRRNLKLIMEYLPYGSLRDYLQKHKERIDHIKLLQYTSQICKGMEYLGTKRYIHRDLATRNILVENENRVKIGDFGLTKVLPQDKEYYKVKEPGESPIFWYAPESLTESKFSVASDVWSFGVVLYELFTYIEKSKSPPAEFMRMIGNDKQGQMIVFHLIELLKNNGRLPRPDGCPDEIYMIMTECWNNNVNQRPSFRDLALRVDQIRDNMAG", "experiment": "Inhibition of JAK2 phosphorylation in human A-375 cells assessed as decrease in phosphorylated JAK2 level at 6 to 8 uM measured after 12 to 24 hrs by Western blot analysis", "assay_type": "cell-based", "conditions": "dose 6-8 µM, time 12-24 hrs"}, "A-375 [6]": {"system": "A-375", "experiment": "Induction of cell cycle arrest in human A-375 cells assessed as accumulation at S phase incubated for 24 hrs in presence of AG490 by PI staining based flow cytometry analysis (reference value: 34.44 %)", "assay_type": "functional"}, "A-375 [7]": {"system": "A-375", "experiment": "Induction of cell cycle arrest in human A-375 cells assessed as accumulation at G2/M phase incubated for 24 hrs by PI staining based flow cytometry analysis (reference value: 8.87 %)", "assay_type": "functional"}, "A-375 [8]": {"system": "A-375", "experiment": "Induction of cell cycle arrest in human A-375 cells assessed as accumulation at G2/M phase incubated for 24 hrs in presence of AG490 inhibitor by PI staining based flow cytometry analysis (reference value: 8.87 %)", "assay_type": "functional"}, "B16 [9]": {"system": "B16", "experiment": "Cytotoxicity against mouse B16 cells assessed as reduction in cell viability incubated for 24 hrs by MTT assay", "assay_type": "functional, cell-based", "conditions": "B16, 24 h"}, "A-375 [10]": {"system": "A-375", "experiment": "Cytotoxicity against human A-375 cells assessed as decrease in number of adherent cells at 6 to 8 uM incubated for 24 hrs by […] phase contrast microscope analysis", "assay_type": "functional, cell-based", "conditions": "dose 6-8 µM"}, "B16 [11]": {"system": "B16", "experiment": "Cytotoxicity against mouse B16 cells assessed as change in cell morphology with loss of intercellular contacts at 5 to 7 uM incubated for 24 hrs by phase contrast microscope analysis", "assay_type": "functional, cell-based", "conditions": "dose 5-7 µM"}, "B16 [12]": {"system": "B16", "experiment": "Inhibition of colony formation in mouse B16 cells assessed as reduction in number of colonies at 5 to 7 uM incubated for 24 hrs followed by replacement with fresh medium and measured after 14 days by crystal violet staining based analysis", "assay_type": "functional, cell-based", "conditions": "dose 5-7 µM"}, "B16 [13]": {"system": "B16", "experiment": "Induction of cell cycle arrest in mouse B16 cells assessed as accumulation at G0/G1 phase at 7 uM incubated for 24 hrs by PI staining based flow cytometry analysis (reference value: 61.83 %)", "assay_type": "functional"}, "B16 [14]": {"system": "B16", "experiment": "Induction of cell cycle arrest in mouse B16 cells assessed as accumulation at S phase at 6 uM incubated for 24 hrs by PI staining based flow cytometry analysis (reference value: 33.46 %)", "assay_type": "functional"}, "B16 [15]": {"system": "B16", "experiment": "Induction of cell cycle arrest in mouse B16 cells assessed as accumulation at S phase incubated for 24 hrs in presence of AG490 by PI staining based flow cytometry analysis (reference value: 42.53 %)", "assay_type": "functional"}, "B16 [16]": {"system": "B16", "experiment": "Induction of cell cycle arrest in mouse B16 cells assessed as accumulation at G2/M phase incubated for 24 hrs in presence of AG490 by PI staining based flow cytometry analysis (reference value: 0.88 %)", "assay_type": "functional"}, "A-375 [17]": {"system": "A-375", "experiment": "Induction of apoptosis in human A-375 cells assessed as late apoptotic cells at 7 uM after 24 hrs by Annexin-V-FITC/PI-staining based flow cytometry (reference value: 5.7 %)", "assay_type": "functional"}, "A-375 [18]": {"system": "A-375", "experiment": "Induction of apoptosis in human A-375 cells assessed as late apoptotic cells at 8 uM after 24 hrs by Annexin-V-FITC/PI-staining based flow cytometry (reference value: 5.7 %)", "assay_type": "functional"}, "A-375 [19]": {"system": "A-375", "experiment": "Induction of apoptosis in human A-375 cells assessed as nuclear membrane lysis at 6 to 8 uM incubated for 24 hrs by Hoechst 33258 staining based fluorescence microscopy", "assay_type": "functional, cell-based", "conditions": "dose 6-8 µM"}, "A-375 [20]": {"system": "A-375", "experiment": "Induction of apoptosis in human A-375 cells assessed as increase in cleaved caspase 9 expression at 6 to 8 uM incubated for 24 hrs by Western blot analysis", "assay_type": "functional, cell-based", "conditions": "dose 6-8 µM"}, "A-375 [21]": {"system": "A-375", "experiment": "Induction of apoptosis in human A-375 cells assessed as increase in cleaved caspase 3 expression at 6 to 8 uM incubated for 24 hrs by Western blot analysis", "assay_type": "functional, cell-based", "conditions": "dose 6-8 µM"}, "A-375 [22]": {"system": "A-375", "experiment": "Induction of apoptosis in human A-375 cells assessed as late apoptotic cells preincubated for 2 hrs with […] followed by compound addition and measured after 24 hrs by Annexin-V-FITC/PI-staining based flow cytometry (reference value: 5.7 %)", "assay_type": "functional"}, "A-375 [23]": {"system": "A-375", "experiment": "Inhibition of autophagy in human A-375 cells harbouring mCherry-egfp-LC3 assessed as increase in proportion of autolysosome at 7 uM incubated for 8 to 24 hrs by laser scanning confocal microscopic analysis", "assay_type": "functional, cell-based", "conditions": "time 8-24 hrs, TDE = time-dependent effect"}, "A-375 [24]": {"system": "A-375", "experiment": "Induction of apoptosis in human A-375 cells assessed as late apoptotic cells after 24 hrs by Annexin-V-FITC/PI-staining based flow cytometry (reference value: 5.7 %)", "assay_type": "functional"}, "B16 [25]": {"system": "B16", "experiment": "Induction of apoptosis in mouse B16 cells assessed as chromatin condensation at 5 to 7 uM incubated for 24 hrs by Hoechst 33258 staining based fluorescence microscopy", "assay_type": "functional, cell-based", "conditions": "dose 5-7 µM"}, "B16 [26]": {"system": "B16", "experiment": "Induction of apoptosis in mouse B16 cells assessed as early apoptotic cells at 5 uM measured after 24 hrs by Annexin-V-FITC/PI-staining based flow cytometry (reference value: 0.5 %)", "assay_type": "functional"}, "B16 [27]": {"system": "B16", "experiment": "Induction of apoptosis in mouse B16 cells assessed as early apoptotic cells at 7 uM measured after 24 hrs by Annexin-V-FITC/PI-staining based flow cytometry (reference value: 0.5 %)", "assay_type": "functional"}, "B16 [28]": {"system": "B16", "experiment": "Induction of apoptosis in mouse B16 cells assessed as late apoptotic cells at 5 uM measured after 24 hrs by Annexin-V-FITC/PI-staining based flow cytometry (reference value: 4.4 %)", "assay_type": "functional"}, "B16 [29]": {"system": "B16", "experiment": "Inhibition of autophagy in mouse B16 cells harbouring mCherry-EGFP-LC3 assessed as increase in proportion of autolysosomes at 6 uM for 8 to 24 hrs by laser scanning confocal microscopic analysis", "assay_type": "functional, cell-based", "conditions": "time 8-24 hrs"}, "B16 [30]": {"system": "B16", "experiment": "Induction of apoptosis in mouse B16 cells assessed as early apoptotic cells preincubated for 2 hrs with 3-MA followed by compound addition and measured after 24 hrs by Annexin-V-FITC/PI-staining based flow cytometry (reference value: 0.9 %)", "assay_type": "functional"}, "B16 [31]": {"system": "B16", "experiment": "Induction of apoptosis in mouse B16 cells assessed as early apoptotic cells measured after 24 hrs by Annexin-V-FITC/PI-staining based flow cytometry (reference value: 0.9 %)", "assay_type": "functional"}, "B16 [32]": {"system": "B16", "experiment": "Induction of apoptosis in mouse B16 cells assessed as late apoptotic cells measured after 24 hrs by Annexin-V-FITC/PI-staining based flow cytometry (reference value: 5.7 %)", "assay_type": "functional"}, "A-375 [33]": {"system": "A-375", "experiment": "Induction of apoptosis in human A-375 cells assessed as early apoptotic cells preincubated for 2 hrs with 3-MA followed by compound addition and measured after 24 hrs by Annexin-V-FITC/PI-staining based flow cytometry (reference value: 3.1 %)", "assay_type": "functional"}},
  "note": "Calls of active or inactive are those of the source. The calls are words filed in the database; no cut-off is given here.",
  "data": [
    {"smiles": "COc1ccc2cc1Oc1ccc(cc1)C[C@H]1c3cc(c(OC)cc3CCN1C)Oc1c(OC)c(OC)c(OC)c3c1[C@H](C2)N(C)CC3", "note": "[HERNANDEZINE]", "values": [
      {"measurement": "IC50", "setting": "Hep 3B2", "result": 6.71, "unit": "µM"},
      {"measurement": "Activity", "setting": "A-375 [1]", "result": 22.36, "unit": "%"},
      {"measurement": "Activity", "setting": "A-375 [2]", "result": 6.77, "unit": "%"},
      {"measurement": "Activity", "setting": "A-375 [3]", "result": "Active"},
      {"measurement": "Activity", "setting": "A-375 [4]", "result": "Active"},
      {"measurement": "inhibition", "setting": "[5]", "result": "Active"},
      {"measurement": "Activity", "setting": "A-375 [6]", "result": 24.36, "unit": "%"},
      {"measurement": "Activity", "setting": "A-375 [7]", "result": 9.5, "unit": "%"},
      {"measurement": "Activity", "setting": "A-375 [8]", "result": 4.78, "unit": "%"},
      {"measurement": "IC50", "setting": "B16 [9]", "result": 5.9, "unit": "µM"},
      {"measurement": "Activity", "setting": "A-375 [10]", "result": "Active"},
      {"measurement": "Activity", "setting": "B16 [11]", "result": "Active"},
      {"measurement": "inhibition", "setting": "B16 [12]", "result": "Active"},
      {"measurement": "Activity", "setting": "B16 [13]", "result": 76.38, "unit": "%"},
      {"measurement": "Activity", "setting": "B16 [14]", "result": 23.84, "unit": "%"},
      {"measurement": "Activity", "setting": "B16 [15]", "result": 6.92, "unit": "%"},
      {"measurement": "Activity", "setting": "B16 [16]", "result": 8.47, "unit": "%"},
      {"measurement": "Activity", "setting": "A-375 [17]", "result": 47, "unit": "%"},
      {"measurement": "Activity", "setting": "A-375 [18]", "result": 53.4, "unit": "%"},
      {"measurement": "Activity", "setting": "A-375 [19]", "result": "Active"},
      {"measurement": "Activity", "setting": "A-375 [20]", "result": "Active"},
      {"measurement": "Activity", "setting": "A-375 [21]", "result": "Active"},
      {"measurement": "Activity", "setting": "A-375 [22]", "result": 23.9, "unit": "%"},
      {"measurement": "inhibition", "setting": "A-375 [23]", "result": "Tde"},
      {"measurement": "Activity", "setting": "A-375 [24]", "result": 48.1, "unit": "%"},
      {"measurement": "Activity", "setting": "B16 [25]", "result": "Active"},
      {"measurement": "Activity", "setting": "B16 [26]", "result": 4.6, "unit": "%"},
      {"measurement": "Activity", "setting": "B16 [27]", "result": 16.4, "unit": "%"},
      {"measurement": "Activity", "setting": "B16 [28]", "result": 17.8, "unit": "%"},
      {"measurement": "inhibition", "setting": "B16 [29]", "result": "Active"},
      {"measurement": "Activity", "setting": "B16 [30]", "result": 14.1, "unit": "%"},
      {"measurement": "Activity", "setting": "B16 [31]", "result": 25.6, "unit": "%"},
      {"measurement": "Activity", "setting": "B16 [32]", "result": 20.6, "unit": "%"},
      {"measurement": "Activity", "setting": "A-375 [33]", "result": 10.1, "unit": "%"}
    ]}
  ]
}
